# Assay results reported in patent US10800792B2, “Inhibitors of Bruton's tyrosine kinase and method of their use” (JANSSEN PHARMACEUTICA NV, priority 2015, dated 2020).
# Molecular target: unphosphorylated-BTK kinase domain (UP-BTK), GST-tagged human BTK (389-659aa) (Homo sapiens (Human), UniProt Q06187)
# Experiment: BTK kinase Lanthascreen binding assay
# Conditions: Lanthascreen tracer competition, 60 minutes incubation, pIC50 = negative log of the IC50 in molar
# Method in brief: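 Values are pIC50, i.e. negative log of IC50 in molar, derived from concentration–response fitting. Each compound competes with a fluorescently labelled tracer for the unphosphorylated kinase domain.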
# Chain of unphosphorylated-BTK kinase domain (UP-BTK), GST-tagged human BTK (389-659aa) (Q06187 389-659): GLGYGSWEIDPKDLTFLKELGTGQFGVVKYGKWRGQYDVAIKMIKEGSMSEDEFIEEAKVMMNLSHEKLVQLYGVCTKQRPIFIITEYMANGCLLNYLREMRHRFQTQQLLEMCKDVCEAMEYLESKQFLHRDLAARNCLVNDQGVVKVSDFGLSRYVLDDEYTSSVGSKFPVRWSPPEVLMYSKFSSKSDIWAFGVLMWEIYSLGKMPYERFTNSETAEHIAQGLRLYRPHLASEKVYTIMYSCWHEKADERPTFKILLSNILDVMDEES
Structure (SMILES),BTK_I_binding pIC50,IC50 (read-out: BTK_I_binding pIC50 (converted)) [µM]
"O=C(N[C@@H]1CCCNC1)c1sc2nccc3c2c1NC(=O)N3c1cccc(Oc2ccccc2)n1 [Example 645, (R)-4-Oxo-5-(6-phenoxypyridin-2-yl)-N-(piperidin-3-yl)-4,5-dihydro-3H-1-thia-3,5,8-triazaacenaphthylene-2-carboxamide]",<5,–
"CC(C)(C)c1cccc(N2C(=O)Nc3c(C(=O)N[C@@H]4CCCNC4)sc4nccc2c34)c1 [Example 646, (R)-5-(3-(tert-Butyl)phenyl)-4-oxo-N-(piperidin-3-yl)-4,5-dihydro-3H-1-thia-3,5,8-triazaacenaphthylene-2-carboxamide]",<5,–
"O=C(N[C@@H]1CCCNC1)c1sc2nccc3c2c1NC(=O)N3c1cccc(-c2ccncc2)c1 [Example 647, (R)-4-Oxo-N-(piperidin-3-yl)-5-(3-(pyridin-4-yl)phenyl)-4,5-dihydro-3H-1-thia-3,5,8-triazaacenaphthylene-2-carboxamide]",–,> 10
"CC(C)(C)OC(=O)N1CCC[C@@H](NC(=O)c2sc3nccc4c3c2NC(=O)N4c2cccc(C(C)(C)C)c2)C1 [Example 648, (R)-tert-Butyl 3-(5-(3-(tert-butyl)phenyl)-4-oxo-4,5-dihydro-3H-1-thia-3,5,8-triazaacenaphthylene-2-carboxamido)piperidine-1-carboxylate]",<5,–
"CC(=O)c1cccc(N2C(=O)Nc3c(C(=O)N[C@@H]4CCCN(C(=O)OC(C)(C)C)C4)sc4nccc2c34)c1 [Example 649, (R)-tert-Butyl 3-(5-(3-acetylphenyl)-4-oxo-4,5-dihydro-3H-1-thia-3,5,8-triazaacenaphthylene-2-carboxamido)piperidine-1-carboxylate]",<5,–
"CC(C)(C)S(=O)(=O)c1ccc(N2C(=O)Nc3c(C(=O)N[C@@H]4CCCNC4)sc4nccc2c34)cc1 [Example 650, (R)-5-(4-(tert-Butylsulfonyl)phenyl)-4-oxo-N-(piperidin-3-yl)-4,5-dihydro-3H-1-thia-3,5,8-triazaacenaphthylene-2-carboxamide]",<5,–
"CC(C)(C)OC(=O)N1CCC[C@@H](NC(=O)c2sc3nccc4c3c2NC(=O)N4c2ccc(S(=O)(=O)C(C)(C)C)cc2)C1 [Example 651, (R)-tert-Butyl 3-(5-(4-(tert-butylsulfonyl)phenyl)-4-oxo-4,5-dihydro-3H-1-thia-3,5,8-triazaacenaphthylene-2-carboxamido)piperidine-1-carboxylate]",<5,–
"CC(C)(C)OC(=O)N1CCC[C@@H](NC(=O)c2sc3nccc4c3c2NC(=O)N4c2ccc(OC(C)(C)C)cc2)C1 [Example 652, (R)-tert-Butyl 3-(5-(4-(tert-butoxy)phenyl)-4-oxo-4,5-dihydro-3H-1-thia-3,5,8-triazaacenaphthylene-2-carboxamido)piperidine-1-carboxylate]",<5,–
"CC(C)(C)OC(=O)N1CCC[C@@H](NC(=O)c2sc3nccc4c3c2NC(=O)N4c2ccc3c(c2)OC(F)(F)O3)C1 [Example 653, (R)-tert-Butyl 3-(5-(2,2-difluorobenzo[d][1,3]dioxol-5-yl)-4-oxo-4,5-dihydro-3H-1-thia-3,5,8-triazaacenaphthylene-2-carboxamido)piperidine-1-carboxylate]",<5,–
"CC(C)(C)OC(=O)N1CCC[C@@H](NC(=O)c2sc3nccc4c3c2NC(=O)N4c2ccc(OC3CCC3)nc2)C1 [Example 654, (R)-tert-Butyl 3-(5-(6-cyclobutoxypyridin-3-yl)-4-oxo-4,5-dihydro-3H-1-thia-3,5,8-triazaacenaphthylene-2-carboxamido)piperidine-1-carboxylate]",<5,–
"C=CC(=O)N1CC[C@@H](O)[C@H](NC(=O)c2sc3nccc4c3c2NC(=O)N4c2ccc(Oc3ccccc3)cc2)C1 [Example 655, N-((3R,4R)-1-Acryloyl-4-hydroxypiperidin-3-yl)-4-oxo-5-(4-phenoxyphenyl)-4,5-dihydro-3H-1-thia-3,5,8-triazaacenaphthylene-2-carboxamide]",8.0,–
"Cc1nc(Oc2ccccc2)cnc1N1C(=O)Nc2c(C(=O)N[C@@H]3CCCNC3)sc3nccc1c23 [Example 656, (R)-5-(3-Methyl-5-phenoxypyrazin-2-yl)-4-oxo-N-(piperidin-3-yl)-4,5-dihydro-3H-1-thia-3,5,8-triazaacenaphthylene-2-carboxamide]",6.2,–
"C=CC(=O)N1CCC[C@@H](NC(=O)c2sc3nccc4c3c2NC(=O)N4c2ncc(Oc3ccccc3)nc2C)C1 [Example 657, (R)—N-(1-Acryloylpiperidin-3-yl)-5-(3-methyl-5-phenoxypyrazin-2-yl)-4-oxo-4,5-dihydro-3H-1-thia-3,5,8-triazaacenaphthylene-2-carboxamide]",7.7,–
"O=C(N[C@@H]1CNCC[C@H]1O)c1sc2nccc3c2c1NC(=O)N3c1ccc(Oc2ccccc2)cc1 [Example 658, N-((3R,4R)-4-Hydroxypiperidin-3-yl)-4-oxo-5-(4-phenoxyphenyl)-4,5-dihydro-3H-1-thia-3,5,8-triazaacenaphthylene-2-carboxamide]",6.6,–
"C=CC(=O)N1CCC[C@@H](NC(=O)c2sc3nccc4c3c2NC(=O)N4c2ncc(Oc3ccccc3)cn2)C1 [Example 665, (R)—N-(1-Acryloylpiperidin-3-yl)-4-oxo-5-(5-phenoxypyrimidin-2-yl)-4,5-dihydro-3H-1-thia-3,5,8-triazaacenaphthylene-2-carboxamide]",7.8,–
"C=CC(=O)N1CCC[C@@H](NC(=O)c2sc3nccc4c3c2NC(=O)N4c2cnc(Oc3ccccc3)cc2C)C1 [Example 667, (R)—N-(1-Acryloylpiperidin-3-yl)-5-(4-methyl-6-phenoxypyridin-3-yl)-4-oxo-4,5-dihydro-3H-1-thia-3,5,8-triazaacenaphthylene-2-carboxamide]",7.9,–
"C=CC(=O)N1CCC[C@@H](NC(=O)c2sc3nccc4c3c2NC(=O)N4c2ccc(Oc3ccccc3)nc2C)C1 [Example 670, (R)—N-(1-Acryloylpiperidin-3-yl)-5-(2-methyl-6-phenoxypyridin-3-yl)-4-oxo-4,5-dihydro-3H-1-thia-3,5,8-triazaacenaphthylene-2-carboxamide]",8.2,–
"C=CC(=O)N1CCC[C@@H](NC(=O)c2sc3nccc4c3c2NC(=O)N4c2cnc(OC3CCC3)cc2C)C1 [Example 672, (R)—N-(1-Acryloylpiperidin-3-yl)-5-(6-cyclobutoxy-4-methylpyridin-3-yl)-4-oxo-4,5-dihydro-3H-1-thia-3,5,8-triazaacenaphthylene-2-carboxamide]",7.6,–
"C=CC(=O)N1CC[C@@H](NC(=O)c2sc3nccc4c3c2NC(=O)N4c2cccc(-c3cccc(F)c3F)c2)C1 [Example 673, (R)—N-(1-Acryloylpyrrolidin-3-yl)-5-(2′,3′-difluoro-[1,1′-biphenyl]-3-yl)-4-oxo-4,5-dihydro-3H-1-thia-3,5,8-triazaacenaphthylene-2-carboxamide]",8.2,–
"C=CC(=O)N1C[C@@H](O)C[C@@H](NC(=O)c2sc3nccc4c3c2NC(=O)N4c2cccc(-c3cccc(F)c3F)c2)C1 [Example 674, N-((3R,5S)-1-Acryloyl-5-hydroxypiperidin-3-yl)-5-(2′,3′-difluoro-[1,1′-biphenyl]-3-yl)-4-oxo-4,5-dihydro-3H-1-thia-3,5,8-triazaacenaphthylene-2-carboxamide]",8.2,–
"C=CC(=O)N1CCC[C@@H](NC(=O)c2sc3nccc4c3c2NC(=O)N4c2ccnc(C3CCCCC3)c2)C1 [Example 677, (R)—N-(1-Acryloylpiperidin-3-yl)-5-(2-cyclohexylpyridin-4-yl)-4-oxo-4,5-dihydro-3H-1-thia-3,5,8-triazaacenaphthylene-2-carboxamide]",7.3,–
"C=CC(=O)N1CCC[C@@H](NC(=O)c2sc3nccc4c3c2NC(=O)N4c2cnnc(-c3ccccc3)c2)C1 [Example 678, (R)—N-(1-Acryloylpiperidin-3-yl)-4-oxo-5-(6-phenylpyridazin-4-yl)-4,5-dihydro-3H-1-thia-3,5,8-triazaacenaphthylene-2-carboxamide]",7.3,–
"C=CC(=O)N1C[C@H](NC(=O)c2sc3nccc4c3c2NC(=O)N4c2cccc(-c3cccc(F)c3F)c2)C[C@H](OC)C1 [Example 679, N-((3R,5S)-1-Acryloyl-5-methoxypiperidin-3-yl)-5-(2′3′-difluoro-[1,1′-biphenyl]-3-yl)-4-oxo-4,5-dihydro-3H-1-thia-3,5,8-triazaacenaphthylene-2-carboxamide]",7.8,–
"C=CC(=O)N1CC[C@@H](NC(=O)c2sc3nccc4c3c2NC(=O)N4c2ccc(Oc3ccccc3)nc2)C1 [Example 680, (R)—N-(1-Acryloylpyrrolidin-3-yl)-4-oxo-5-(6-phenoxypyridin-3-yl)-4,5-dihydro-3H-1-thia-3,5,8-triazaacenaphthylene-2-carboxamide]",7.3,–
"CC(=O)N1CCC[C@H]1/C=C(\C#N)C(=O)N1CCC[C@@H](NC(=O)c2sc3nccc4c3c2NC(=O)N4c2ccc(Oc3ccccc3)cc2C)C1 [Example 681, N—((R)-1-((*E)-3-((S)-1-Acetylpyrrolidin-2-yl)-2-cyanoacryloyl)piperidin-3-yl)-5-(2-methyl-4-phenoxyphenyl)-4-oxo-4,5-dihydro-3H-1-thia-3,5,8-triazaacenaphthylene-2-carboxamide]",7.7,–
